The subject of the experiment is CEM cells HIV-1 protection, formazan growth assay. Briefly: NCI AIDS Antiviral Assay. The settings on record: for IC50: measured here: growth of uninfected CEM cells. Put shortly:
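Protection of CEM cells against HIV-1 was scored from cell growth (soluble formazan) across five concentrations, with parallel uninfected cells. Lack of protection may reflect toxicity.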

The structures appear in SMILES notation. Several values for one entry are separate records, joined by “and”; a condition that tells them apart may be missing. Identical values can stand only once. Activity calls are given as the source filed them.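 The calls were made as follows: active = compounds giving half or more protection of infected cells from virus-caused growth loss, again on retest; inactive = the rest.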

Take `O=C(C=Nc1ccccc1C(=O)[O-])c1ccco1.O=C(C=Nc1ccccc1C(=O)[O-])c1ccco1.[Zn+2]`: the EC50 is above 1.38 µM and the IC50 was above 1.38 µM. `O=S(=O)([O-])[O-].[Fe+2].[OH2+]c1c(Cl)cc(Cl)cc1/C=N/Nc1ccccn1`: the result was inactive. For the compound `Cc1cccc2c1C(=O)C1(Cc3ccccc3C1=O)C2` (stereo unspecified), the EC50 is above 200 µM and the IC50 was above 200 µM. In the case of `CCc1nc2ccc(N=NN(C)C)cc2[nH]1`, the EC50 is 85.1 µM and the IC50 came out at 107 µM. On to `O=C1CCCC/C1=C\c1ccc([N+](=O)[O-])cc1`, for which the EC50 was above 200 µM and the IC50 was 6.03 µM. As to `Cn1c(=O)c2cc(O)cnc2n(C)c1=O`, the EC50 was above 200 µM and the IC50 is above 200 µM. In the case of `OCC(CCc1ccccc1I)C1=CCC2(CC1)OCCO2` (stereo unspecified), the EC50 was above 200 µM and the IC50 came to 34.7 µM. For the compound `CC(C)(C)OC(=O)N(CCCCNCc1ccc2ccccc2c1)CCCNCc1ccc2ccccc2c1`, the EC50 was above 2 µM and the IC50 turned out to be 1.05 µM. On the same counts, the results for `Nc1nc(NNc2ccccc2F)cc(=O)[nH]1` are above 200 µM and 28.2 µM.

In the case of `O/N=C\c1c2c(cc3c1CCC3)CCC2`, the EC50 was above 200 µM and the IC50 was above 200 µM.

On to `COc1ccccc1NC(=S)N=Nc1c(O)[nH]c2ccccc12`, for which the EC50 was above 200 µM and the IC50 was 174 µM. Regarding `CC(=O)Nc1ccc(-c2nnc(SCC(=O)Nc3ccc([N+](=O)[O-])cc3)o2)cc1`, the EC50 was above 45.7 µM and the IC50 stood at 7.94 µM.

For `CC(C)C[CH2][Ge]([CH2]CC(C)C)([CH2]CC(C)C)[CH2]CC(C)C`, the EC50 is above 200 µM and the IC50 was above 200 µM.

As to `NC1=NCc2c(sc3c2CCCC3)N1`, the EC50 is above 200 µM and the IC50 is 18.6 µM.

For the compound `CCCc1ccc(NCc2cc(OC)c(OC)c(OC)c2)cc1`, the EC50 is above 74.1 µM and the IC50 was 31.6 µM. Regarding `O=C1OCSc2ccccc21`, the EC50 is above 1070 µM and the half-maximal inhibitory concentration (IC50) turned out to be 178 µM.

In the case of `Nc1ccc2[se]nc3c2c1C(=O)c1ccccc1-3`, the EC50 was above 6.76 µM and the IC50 is above 6.76 µM. For the compound `N#C/C(=C/NC(=S)Nc1ccc(S(N)(=O)=O)cc1)C(N)=O`, the EC50 is above 200 µM and the IC50 was 178 µM. Consider `N/C(=C\c1ccc(/C=C(\NC(=O)c2ccccc2)c2nc3c([nH]2)C(=O)c2ccccc2C3=O)cc1)c1nc2c([nH]1)C(=O)c1ccccc1C2=O`, for which the result was inactive.

Consider `Cn1c2ccccc2c(=Nc2ccc(S(N)(=O)=O)cc2)c2ccccc21`, for which the result was inactive. Take `O=S(=O)(O)c1cccc2c1CN1CCCCC1C2` (stereo unspecified): the EC50 is above 200 µM and the IC50 was above 200 µM.

On to `Cc1ccc(-c2c(C#N)c(N)nc3c2CCS(=O)(=O)c2ccccc2-3)cc1`, for which the EC50 is above 200 µM and the IC50 turned out to be 77.6 µM.

As to `C=C(C(N)=O)c1ccc([N+](=O)[O-])o1`, the EC50 is above 200 µM and the IC50 was 3.47 µM. On to `CC1(C)OCC[C@@H]1[Si](C)(C)C`, for which the outcome was inactive.

For `O=[N+]([O-])c1ccc(C(O)(C#CCN2CCCC2)c2ccccc2)cc1` (stereo unspecified), the EC50 was above 200 µM and the IC50 was above 100 µM. With `Cc1cc2ccc(N)nc2[nH]c1=O`, the EC50 was above 200 µM and the half-inhibitory concentration (IC50) was above 200 µM. Turning to `O=C(Nc1ccc(CN2CCOCC2)cc1)c1ccc(C(=O)Nc2ccc(CN3CCOCC3)cc2)cc1`, the EC50 was above 200 µM and the IC50 is above 200 µM. `O=C(O)CSc1nnc(COc2ccccc2)n1-c1ccccc1`: the EC50 is above 741 µM and the IC50 came to 407 µM. The corresponding values for `COc1ccccc1OCC(Cn1c(=O)nc(-c2ccccc2)c2cc(Cl)ccc21)OC(N)=O` (stereo unspecified) are above 28.2 µM and above 28.2 µM.

Turning to `Cc1nc(-c2cc3c(ccc4ccccc43)oc2=O)cs1`, the EC50 was above 100 µM and the IC50 was 95.5 µM. Take `N#Cc1ccccc1SSc1ccccc1C#N`: the EC50 is above 200 µM and the IC50 was 11.7 µM. Regarding `COc1ccc(-c2nc3c(=O)n(C)c(=O)nc-3n(C)n2)cc1OC`, the EC50 was above 20 µM and the IC50 is 0.447 µM. In the case of `CCCC#CCC(CC#CCCC)(C(=O)O)C(=O)O`, the EC50 was above 490 µM and the IC50 was above 490 µM.

Consider `C[C@]12Cc3conc3C(O)=C1CC[C@@H]1C2CC[C@@]2(C)C1CC[C@]2(C)O` (stereo partly specified), for which the outcome was inactive. Regarding `CCCCCCCCCCCCn1[se]c2ccccc2c1=O`, the EC50 was 5.01 µM and the IC50 turned out to be 5.5 µM. For `O=C(CNc1ccccc1Cl)Nn1c(-c2ccccc2)nc2ccccc2c1=O`, the EC50 was above 200 µM and the IC50 was 30.2 µM. Regarding `O=C(O)c1sccc1Cc1ccsc1`, the EC50 is above 200 µM and the IC50 is above 200 µM. `CCN(CC)C(=S)N/N=C(/c1ccccc1)c1ccccn1`: the EC50 is above 200 µM and the IC50 is 1.51 µM. For the compound `CCOC(=O)/C(=C\n1c(=O)sc2ccccc21)C(=O)c1ccccc1`, the EC50 was above 200 µM and the IC50 worked out at 42.7 µM. In the case of `O=C1NC(N/N=C\C(O)C(O)C(O)C(O)CO)=N/C1=C/c1ccc(Cl)cc1` (stereo unspecified), the EC50 was above 200 µM; the IC50 was 61.7 µM and 37.2 µM. As to `COC(=O)CC1C(COC(C)=O)OC(n2cc(C)c(=O)[nH]c2=O)C1OC(C)=O` (stereo unspecified), the outcome was inactive. On to `Nc1ccc2cc(S(=O)(=O)O)cc(O)c2c1N=Nc1ccc(-c2ccc(N=Nc3c(S(=O)(=O)O)cc4cc(S(=O)(=O)O)c(N=Nc5ccc([N+](=O)[O-])cc5)c(N)c4c3O)cc2)cc1`, for which the outcome was inactive. In the case of `C[n+]1c(-c2ccc(NC(=O)c3ccc(C(=O)Nc4ccc(-c5cn6ccccc6[n+]5C)cc4)cc3)cc2)cn2ccccc21`, the EC50 was above 2.63 µM and the IC50 stood at 1.66 µM.

As to `C=CCc1cc(OC)c2c(c1)C(O)CC(c1ccccc1)O2` (stereo unspecified), the EC50 is above 170 µM and the IC50 is above 170 µM.

Take `O=C(O)c1cc(-c2ccccc2)c(-c2ccccc2)cc1C(c1ccccc1)c1ccccc1`: the EC50 is above 200 µM and the concentration for half-maximal inhibition (IC50) came to 28.2 µM. For the compound `Cc1ncc(C(N)=O)c2c1OC(C)(C)OC2`, the EC50 was above 200 µM and the IC50 was above 200 µM. As for `O=C1C=CC(=O)c2c1ccc1c3ccccc3n(-c3cccc([N+](=O)[O-])c3)c21`, the EC50 was above 100 µM and the IC50 worked out at 4.79 µM.

With `CC(=O)Nc1ccc(C(=O)NN2C(=O)C(Cl)/C2=C/c2ccco2)cc1` (stereo unspecified), the outcome was inactive.

Turning to `CCOc1ccc(-n2c(=O)n3c(Nc4ccc(Cl)cc4)nc4c(c(=O)n(C)c(=O)n4C)n3c2=O)cc1`, the EC50 is above 100 µM and the IC50 worked out at 66.1 µM. As to `COc1cc2c(cc1OC)C(C1c3cc(OC)c(OC)cc3-c3c(OC)c(OC)cc4c3C1N(C)CC4)C1c3c(cc(OC)c(OC)c3-2)CCN1C` (stereo unspecified), the result was inactive. As for `O=C1c2ccccc2N2OC3(N4CCCC4)CCCCC3C12c1ccccc1` (stereo unspecified), the EC50 was above 10 µM and the IC50 was above 10 µM. Take `COc1ccc(CCn2cncn2)cc1`: the EC50 is above 1050 µM and the IC50 was above 1050 µM. For the compound `CN(C)C(=Nc1ccc(NC(=O)c2ccc(C(=O)Nc3ccc(N=C(Nc4ccccc4)N(C)C)cc3)cc2)cc1)Nc1ccccc1`, the outcome was inactive. Consider `CCOC(OCC)c1ccccc1.[C-]#[O+].[C-]#[O+].[C-]#[O+].[Cr]`, for which the EC50 is above 20 µM and the IC50 was determined as 2.04 µM.

For `COC(=O)C(CCc1cc(OC)ccc1I)C1=CCC2(CC1)OCCO2` (stereo unspecified), the EC50 was above 38 µM and the IC50 was above 38 µM. `O=c1cc(-c2ccccc2)c2cc3c(=O)ccoc3cc2o1`: the EC50 was above 3.47 µM and the IC50 was above 3.47 µM. Take `C=CC(=O)N1C/C(=C\c2ccc(Cl)c(Cl)c2)C(=O)/C(=C/c2ccc(Cl)c(Cl)c2)C1`: the EC50 is above 5.89 µM and the IC50 was 0.0372 µM.

With `COc1ccc(C(C)=O)cc1CN1CCN(Cc2cc(C(C)=O)ccc2OC)CC1`, the EC50 was above 33.1 µM and the IC50 is above 33.1 µM. As to `C=CCNC(=S)N/C=C(/C(=O)c1ccccc1)c1ccccc1`, the EC50 is above 200 µM and the IC50 was 182 µM. As to `Cc1ccc(Oc2ccc(C)cc2N)cc1`, the outcome was inactive. In the case of `O=c1oc2nc3ccc(Cl)cc3c(=O)n2c2ccc(Cl)cc12`, the EC50 is above 200 µM and the IC50 is above 200 µM. For `CCCCCCCCCCCCCCCCOP(=O)(O)OP(=O)(O)OCC1OC(n2ccc(N)nc2=O)CC1O` (stereo unspecified), the EC50 is above 100 µM and the IC50 is above 100 µM. `Cc1cc2c(C(C)C)c(O)c(O)c(C=O)c2c(O)c1-c1c(C)c(N(c2cccc3ccccc23)c2cccc3ccccc23)c2c(C(C)C)c(O)c(O)c(C=O)c2c1O`: the result was inactive. In the case of `O=c1c(O)c(-c2ccccc2)oc2ccccc12.[Zn+2]`, the EC50 was above 200 µM and the IC50 is 13.2 µM. `Cn1c(=O)cc(C=Nc2ccc(S(N)(=O)=O)cc2)c2ccccc21`: the EC50 is above 200 µM and the IC50 came to 1.51 µM. `C(=C\c1ccnc2ccccc12)/c1ccnc2ccccc12`: the EC50 was above 13.2 µM and the IC50 was above 13.2 µM. With `CC1(C)C=C(/C=N/Nc2ccc([N+](=O)[O-])cc2)C(C#N)=C(O)C1(C#N)C#N`, the EC50 was above 200 µM and the IC50 worked out at 53.7 µM. With `Cc1ccc(N/N=c2\c3nc4ccccc4nc2n(-c2ccccc2C)c(=S)n3-c2ccccn2)cc1`, the EC50 is above 17.8 µM. For `O=Nc1c(O)ccc2ccccc12.O=Nc1c(O)ccc2ccccc12.O=Nc1c([O-])ccc2ccccc12.[Fe+3]`, the EC50 was above 129 µM and the IC50 was found to be 95.5 µM. Consider `CC(=O)c1cc2c(cc1C(C)C)CC[C@H]1[C@](C)(C#N)CCC[C@]21C`, for which the EC50 was above 200 µM; the IC50 is 174 µM and 126 µM. As for `COc1ccc(/C(C#N)=C/c2cccc(OC)c2OC)cc1`, the EC50 was above 200 µM and the IC50 is 28.2 µM. Turning to `CN(CCN(C)CC(=O)O)CC(=O)O`, the EC50 is above 617 µM and the IC50 amounted to 550 µM.

The term EC50 denotes the concentration that produces a half-maximal response. For orientation: IC50 means the concentration that inhibits the measured activity by half. Lower therefore signals higher potency.

Values taken from PubChem BioAssay AID179 (DTP/NCI, 2004).
